This is an account of results in patent publication US4478827A, “Renin inhibitors” (The General Hospital Corporation, priority 1983, dated 1984).

pKi: −log10 of the molar value. Converted amounts (≈) assume the structure as drawn. Read-outs that look alike come from different tables or passages of the source. Where a SMILES comes first, the peptide text is derived from it. [ ]: non-standard residue; d: D form.

Series [1] in a line: Solubility in aqueous medium. The class given is physicochemical.
A short description of series [2]: log P. The class given is physicochemical.
Series [3] can be described thus: Half life in vivo (loss of radioactively labeled peptide from the circulation). As for the experimental part: The polypeptides of this invention are characterized by solubility in an aqueous medium at physiologic pH of 100-500 μm, an inhibition constant for (Ki) of between 1-50 μm and a half-life in vivo, as measured by rate of loss of radioactively labeled peptide from the circulation, of between about 1-10 minutes, especially 5-10 minutes.

For series [4], the target named is T1, renin (Homo sapiens, UniProt P00797).
T1 sequence (P00797 67-406): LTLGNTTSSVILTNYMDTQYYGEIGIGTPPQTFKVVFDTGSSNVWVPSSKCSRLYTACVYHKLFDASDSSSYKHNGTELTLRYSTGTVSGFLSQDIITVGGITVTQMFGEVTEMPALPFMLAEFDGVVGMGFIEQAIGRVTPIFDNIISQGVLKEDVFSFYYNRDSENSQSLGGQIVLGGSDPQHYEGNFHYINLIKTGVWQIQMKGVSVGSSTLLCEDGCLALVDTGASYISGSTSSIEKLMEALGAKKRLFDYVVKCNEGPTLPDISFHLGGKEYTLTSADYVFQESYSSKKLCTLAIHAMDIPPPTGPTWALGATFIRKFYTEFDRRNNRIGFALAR
As to the kind of experiment: biochemical.
Description: The peptide being tested is dissolved in 0.01 N HCl and the pH adjusted to pH 7.5 to obtain high concentrations of peptide. The peptide solution is diluted further to appropriate concentrations with 0.1 M Tris HCl-albumin.
First, to determine Km, renin (0.006 Goldblatt unit/ml) is incubated for 2 hrs. at 37° with incremental concentrations of tetradecapeptide substrate varying between 3 and 108μ M in a volume of 160 μl at pH 7.5 in 0.1M Tris HCl containing 0.5% albumin. The release of angiotensin I is determined by radioimmunoassay (Haber et al, J. Clin. Endocrinol. Metab. 29, 1349 (1969)). […] Controls for cross-relatively are performed with each experiment and appropriate corrections are made when significant, (Poulsen et al, Scand. J. Clin. Lab. Invest. 31, Suppl. No. 132, 1, (1973)).
The inhibitor constant is calculated at previously described, (Poulsen et al, Scand. J. Clin. Lab. Invest. 31, suppl. No. 132, 1, (1973)), from a weighted leastsquares fit of a Lineweaver-Burk plot. […]
Angiotensin I standards and tetradecapeptide renin substrate were obtained from Peninsula (San Mateo, CA). Angiotensin I concentrations were determined with the radio immunoassay kit purchased from New England Nuclear (Boston, MA). […]
Data from the RIA was worked up using a computer program. Data were first fitted to a Lineweaver-Burke plot and from this KI was calculated.

The target in series [5] is T1, renin. The following applies: octapeptides with replaced Leu-Leu cleavage site, prior art; read-out: binding constants; cited from earlier work.
[6] abbreviates: pH 7.4, water, pH 7.40, read-out: Solubility (pH 7.40).

As for `CC(C)[C@H](NC(=O)[C@H](Cc1ccccc1)NC(=O)[C@H](Cc1ccccc1)NC(=O)[C@H](Cc1c[nH]cn1)NC(=O)[C@H](Cc1ccccc1)NC(=O)[C@@H]1CCCN1C(=O)[C@H](Cc1c[nH]cn1)NC(=O)[C@@H]1CCCN1)C(=O)N[C@@H](Cc1ccc(O)cc1)C(=O)N[C@H](CCCCN)C(=O)O` [D-RIP, Pro-His-Pro-Phe-His-Phe-Phe-Val-Tyr-D-Lys] (H-PHPFHFFVY[dK]-OH), the solubility in series [1] and in series [1] (setting [6]) was 330 µM (≈ 435 µg/mL) each time. Also, the logP (usually the decadic logarithm of the partition coefficient of the neutral form, usually between octanol and water) in series [2] is -1.28. Besides, in series [3], the “Half life in vivo” value is 5 min. The same compound gave a pKi in series [4] of 4.53.
Consider `CC(C)[C@H](NC(=O)[C@H](Cc1ccccc1)NC(=O)[C@H](Cc1ccccc1)NC(=O)[C@H](Cc1cnc[nH]1)NC(=O)[C@H](Cc1ccccc1)NC(=O)[C@@H]1CCCN1C(=O)[C@H](Cc1cnc[nH]1)NC(=O)[C@@H]1CCCN1)C(=O)N[C@@H](Cc1ccc(O)cc1)C(=O)N[C@@H](CCCCN)C(=O)O` [RIP, Pro-His-Pro-Pre-His-Phe-Phe-Val-Tyr-Lys] (H-PHPFHFFVYK-OH), for which, in series [1] (setting [6]), the solubility (usually the concentration that dissolves in the medium under given conditions) was 840 µM (≈ 1110 µg/mL). In addition, the “life in vitro and in vivo” value in series [3] (in vitro and in vivo) is “relatively short life”. Besides, the “Half life in vivo” value in series [3] amounted to 3.8 min. Moreover, the pKi in series [4] was 4.38.
Turning to Leu-Phe, the pKi in series [5] was 5.40.
As for Leu-Tyr, the pKi in series [5] is 4.92.
